We go through seven compounds from PubChem BioAssay AID1581.

Each structure is given as a SMILES string. Inconclusive results are not listed.

This assay concerns the target PAR-4 (PAWR) - atypical PKC interaction. Put plainly: PAR4-aPKC binding disruptors (AID 1581). The following applies: PAR4-aPKC protein interaction assay, normalized signal.
As to `N[C@@H](Cc1ccc(O)c(O)c1)C(=O)O`, the EC50 was 13 µM.

On to `O=c1c(O)c(-c2ccc(O)cc2O)oc2cc(O)cc(O)c12`, for which the EC50 is 10 µM.

In the case of `O=c1c(O)cc2c(O)oc3c(=O)c(O)cc4c3c2c1CC=4O`, the EC50 was 21 µM.

Regarding `CO[C@@]1(NC(=O)C(C(=O)O)c2ccc(O)cc2)C(=O)N2C(C(=O)O)=C(CSc3nnnn3C)CO[C@@H]21` (some centres not stated), the EC50 is 11 µM.

`C=Cc1c(C)c2cc3[nH]c(cc4nc(cc5nc(cc1[nH]2)C(C)=C5CCC(=O)O)C(CCC(=O)O)=C4C)c(C)c3C=C`: the EC50 is 14 µM.

Consider `O=C1C=CC(=O)c2c(O)cccc21`, for which the EC50 was 18 µM.

On to `NC[C@H](O)c1ccc(O)c(O)c1`, for which the EC50 was 29 µM.

As a reminder, the EC50 is the concentration giving half of the maximal effect.
